These molecules were tested against T1, F508del (Homo sapiens, UniProt P13569, DEL508-508) (assay: Protocol 1: membrane potential optical assay (FLIPR III, voltage sensing dye), identification of potentiator compounds). Conditions: Table 3, compounds of Table 1.
T1 construct: expressed in transfected cells
Type: cell-based
How it was run: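 Mouse NIH 3T3 fibroblasts stably expressing F508del, temperature-corrected at 27 °C for 24 h, pretreated with compound, then loaded with voltage-sensing redistribution dye. Forskolin was added in a single step with a chloride gradient (chloride-free gluconate bath; Bath Solution #1 HEPES pH 7.4). Membrane-potential fluorescence read on FLIPR III.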

T1 sequence (P13569 with tags, fused parts or gaps DEL508-508): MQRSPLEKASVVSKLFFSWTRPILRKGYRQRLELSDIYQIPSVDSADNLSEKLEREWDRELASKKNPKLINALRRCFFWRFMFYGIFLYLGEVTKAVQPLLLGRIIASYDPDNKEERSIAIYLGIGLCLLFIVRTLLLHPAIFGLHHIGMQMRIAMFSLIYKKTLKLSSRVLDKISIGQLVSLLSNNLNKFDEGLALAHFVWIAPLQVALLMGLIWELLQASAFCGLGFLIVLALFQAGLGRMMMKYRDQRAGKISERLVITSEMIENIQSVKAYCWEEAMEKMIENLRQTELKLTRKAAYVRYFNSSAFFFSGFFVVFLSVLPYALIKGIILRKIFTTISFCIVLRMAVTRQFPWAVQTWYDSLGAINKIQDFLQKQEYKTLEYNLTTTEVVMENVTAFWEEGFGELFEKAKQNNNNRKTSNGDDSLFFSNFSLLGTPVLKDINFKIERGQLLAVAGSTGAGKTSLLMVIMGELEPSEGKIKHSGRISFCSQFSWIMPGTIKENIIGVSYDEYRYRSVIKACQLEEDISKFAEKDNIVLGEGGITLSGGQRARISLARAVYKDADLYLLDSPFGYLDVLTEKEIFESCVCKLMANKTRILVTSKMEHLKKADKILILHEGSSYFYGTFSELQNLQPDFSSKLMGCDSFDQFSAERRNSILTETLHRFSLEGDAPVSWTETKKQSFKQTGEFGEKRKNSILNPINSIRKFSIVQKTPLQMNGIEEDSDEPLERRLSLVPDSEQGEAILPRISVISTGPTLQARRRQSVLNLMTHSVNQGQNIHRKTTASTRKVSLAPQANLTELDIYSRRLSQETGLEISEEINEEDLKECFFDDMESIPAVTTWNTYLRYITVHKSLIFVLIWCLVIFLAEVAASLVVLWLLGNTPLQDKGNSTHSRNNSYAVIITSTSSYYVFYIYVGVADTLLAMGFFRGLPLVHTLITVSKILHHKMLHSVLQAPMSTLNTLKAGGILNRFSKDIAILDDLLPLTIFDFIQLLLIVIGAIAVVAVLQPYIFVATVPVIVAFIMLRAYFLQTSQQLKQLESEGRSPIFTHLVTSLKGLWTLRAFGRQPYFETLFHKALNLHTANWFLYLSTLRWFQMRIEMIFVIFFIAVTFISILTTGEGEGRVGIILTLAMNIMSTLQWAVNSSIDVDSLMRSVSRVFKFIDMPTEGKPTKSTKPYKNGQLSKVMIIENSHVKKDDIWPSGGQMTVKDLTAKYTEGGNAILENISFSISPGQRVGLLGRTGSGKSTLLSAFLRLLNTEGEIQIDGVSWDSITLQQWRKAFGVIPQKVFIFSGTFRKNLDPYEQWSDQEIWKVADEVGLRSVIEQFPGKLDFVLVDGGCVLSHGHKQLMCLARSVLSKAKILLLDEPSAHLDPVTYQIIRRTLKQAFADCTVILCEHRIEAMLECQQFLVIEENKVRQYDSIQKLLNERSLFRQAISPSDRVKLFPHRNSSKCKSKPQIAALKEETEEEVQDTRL

EC30	SMILES
+++ (“+++” means <3 uM)	CC(C)Oc1ccc(-c2ccc(C(=O)NS(=O)(=O)c3cccc(N)n3)c(N3CCC(C)C(C)C3)n2)cn1 (centres unmarked) [Compound 979, N-[(6-amino-2-pyridyl)sulfonyl]-2-(3,4-dimethyl-1-piperidyl)-6-(6-isopropoxy-3-pyridyl)pyridine-3-carboxamide]
++ (“++” means between 3 uM and 10 uM)	COc1ccc(-c2ccc(C(=O)NS(=O)(=O)c3ccc[nH]c3=O)c(Oc3c(C)cc(C)cc3C)n2)cc1 [Compound 980, 6-(4-methoxyphenyl)-N-[(2-oxo-1H-pyridin-3-yl)sulfonyl]-2-(2,4,6-trimethylphenoxy)pyridine-3-carboxamide]
++ (“++” means between 3 uM and 10 uM)	Cc1cc(C)c(Oc2nc(C)ccc2C(=O)NS(=O)(=O)c2cccc(NCCCN)n2)c(C)c1 [Compound 982, N-[[6-(3-aminopropylamino)-2-pyridyl]sulfonyl]-6-methyl-2-(2,4,6-trimethylphenoxy)pyridine-3-carboxamide]
++ (“++” means between 3 uM and 10 uM)	CNc1ccc(C(=O)NS(=O)(=O)c2cccc(N)n2)c(Oc2c(C)cc(C)cc2C)n1 [Compound 983, N-[(6-amino-2-pyridyl)sulfonyl]-6-(methylamino)-2-(2,4,6-trimethylphenoxy)pyridine-3-carboxamide]
+++ (“+++” means <3 uM)	COc1cc(F)c(-c2ccc(C(=O)NS(=O)(=O)c3cccc(N)n3)c(Oc3c(C)cc(C)cc3C)n2)cc1F [Compound 984, N-[(6-amino-2-pyridyl)sulfonyl]-6-(2,5-difluoro-4-methoxy-phenyl)-2-(2,4,6-trimethylphenoxy)pyridine-3-carboxamide]
+++ (“+++” means <3 uM)	C[C@@H]1CN(c2nc(C(C)(C)C)ccc2C(=O)NS(=O)(=O)c2cccc(N)n2)C(C)(C)C1 [Compound 985, N-[(6-amino-2-pyridyl)sulfonyl]-6-tert-butyl-2-[(4S)-2,2,4-trimethylpyrrolidin-1-yl]pyridine-3-carboxamide]
++ (“++” means between 3 uM and 10 uM)	COCC1CCN(c2nc(C(C)(C)C)ccc2C(=O)NS(=O)(=O)c2cccc(N)n2)CC1 [Compound 986, N-[(6-amino-2-pyridyl)sulfonyl]-6-tert-butyl-2-[4-(methoxymethyl)-1-piperidyl]pyridine-3-carboxamide]
+++ (“+++” means <3 uM)	CC(C)Oc1ccc(-c2ccc(C(=O)NS(=O)(=O)c3cccc(N)n3)c(N3CCCC34CCC4)n2)cn1 [Compound 987, N-[(6-amino-2-pyridyl)sulfonyl]-2-(8-azaspiro[3.4]octan-8-yl)-6-(6-isopropoxy-3-pyridyl)pyridine-3-carboxamide]
+++ (“+++” means <3 uM)	Cc1cc(C)c(Oc2nc(-c3cc(F)cc(OC(C)C)c3)ccc2C(=O)NS(=O)(=O)c2nccnc2N)c(C)c1 [Compound 989, N-(3-aminopyrazin-2-yl)sulfonyl-6-(3-fluoro-5-isopropoxy-phenyl)-2-(2,4,6-trimethylphenoxy)pyridine-3-carboxamide]
+++ (“+++” means <3 uM)	CC(C)Oc1ccc(-c2ccc(C(=O)NS(=O)(=O)c3ccn[nH]3)c(N3C[C@H](C)C[C@@H](C)C3)n2)cn1 [Compound 990, 2-[(3R,5R)-3,5-dimethyl-1-piperidyl]-6-(6-isopropoxy-3-pyridyl)-N-(1H-pyrazol-5-ylsulfonyl)pyridine-3-carboxamide]
+++ (“+++” means <3 uM)	CC(C)Oc1ccc(-c2ccc(C(=O)NS(=O)(=O)c3cccc(N)n3)c(N3CC[C@@H](C)C3(C)C)n2)cn1 [Compound 992, N-[(6-amino-2-pyridyl)sulfonyl]-6-(6-isopropoxy-3-pyridyl)-2-[(3R)-2,2,3-trimethylpyrrolidin-1-yl]pyridine-3-carboxamide]
+++ (“+++” means <3 uM)	COc1ncc(Cl)cc1-c1ccc(C(=O)NS(=O)(=O)c2cccc(N)n2)c(Oc2c(C)cc(C)cc2C)n1 [Compound 993, N-[(6-amino-2-pyridyl)sulfonyl]-6-(5-chloro-2-methoxy-3-pyridyl)-2-(2,4,6-trimethylphenoxy)pyridine-3-carboxamide]
+++ (“+++” means <3 uM)	CC(C)Oc1ccc(-c2ccc(C(=O)NS(=O)(=O)c3cccc(N)n3)c(N3CCCC3Cc3ccccc3)n2)cn1 (centres unmarked) [Compound 994, N-[(6-amino-2-pyridyl)sulfonyl]-2-(2-benzylpyrrolidin-1-yl)-6-(6-isopropoxy-3-pyridyl)pyridine-3-carboxamide]
+++ (“+++” means <3 uM)	Cc1cc(C(=O)NS(=O)(=O)c2cccc(N)n2)c(N2CC(C)CC2(C)C)nc1-c1ccc(OC(C)C)nc1 (centres unmarked) [Compound 995, N-[(6-amino-2-pyridyl)sulfonyl]-6-(6-isopropoxy-3-pyridyl)-5-methyl-2-(2,2,4-trimethylpyrrolidin-1-yl)pyridine-3-carboxamide]
+++ (“+++” means <3 uM)	CCCOc1ccc(-c2ccc(C(=O)NS(=O)(=O)c3cccc(N)n3)c(Oc3c(C)cc(C)cc3C)n2)cc1 [Compound 996, N-[(6-amino-2-pyridyl)sulfonyl]-6-(4-propoxyphenyl)-2-(2,4,6-trimethylphenoxy)pyridine-3-carboxamide]
++ (“++” means between 3 uM and 10 uM)	CC(CO)Oc1ccc(-c2ccc(C(=O)NS(=O)(=O)c3cccc(N)n3)c(N3[C@H](C)CC[C@@H]3C)n2)cn1 (stereo partly drawn) [Compound 998, N-[(6-amino-2-pyridyl)sulfonyl]-2-[(2S,5R)-2,5-dimethylpyrrolidin-1-yl]-6-[6-(2-hydroxy-1-methyl-ethoxy)-3-pyridyl]pyridine-3-carboxamide]
++ (“++” means between 3 uM and 10 uM)	CCCOc1ccc(-c2ccc(C(=O)NS(=O)(=O)c3ccc[nH]c3=O)c(Oc3c(C)cc(C)cc3C)n2)cc1Cl [Compound 999, 6-(3-chloro-4-propoxy-phenyl)-N-[(2-oxo-1H-pyridin-3-yl)sulfonyl]-2-(2,4,6-trimethylphenoxy)pyridine-3-carboxamide]
+++ (“+++” means <3 uM)	Cc1cc(C)c(Oc2nc(-c3ccc(C)c(F)c3)ccc2C(=O)NS(=O)(=O)c2cccc(N)n2)c(C)c1 [Compound 1000, N-[(6-amino-2-pyridyl)sulfonyl]-6-(3-fluoro-4-methyl-phenyl)-2-(2,4,6-trimethylphenoxy)pyridine-3-carboxamide]
++ (“++” means between 3 uM and 10 uM)	CC(C)Oc1cc(-c2ccc(C(=O)NS(=O)(=O)c3ccc[nH]c3=O)c(N3[C@H](C)CC[C@@H]3C)n2)ccc1Cl [Compound 1001, 6-(4-chloro-3-isopropoxy-phenyl)-2-[(2S,5R)-2,5-dimethylpyrrolidin-1-yl]-N-[(2-oxo-1H-pyridin-3-yl)sulfonyl]pyridine-3-carboxamide]
+++ (“+++” means <3 uM)	Cc1cc(C)c(Oc2nc(-c3ccc(C(C)C)cc3)ccc2C(=O)NS(=O)(=O)c2ccc[nH]c2=O)c(C)c1 [Compound 1002, 6-(4-isopropylphenyl)-N-[(2-oxo-1H-pyridin-3-yl)sulfonyl]-2-(2,4,6-trimethylphenoxy)pyridine-3-carboxamide]
+++ (“+++” means <3 uM)	Cc1cc(C)c(Oc2nc(-c3ccc(OCC4CC4)cc3)ccc2C(=O)NS(=O)(=O)c2ccc[nH]c2=O)c(C)c1 [Compound 1007, 6-[4-(cyclopropylmethoxy)phenyl]-N-[(2-oxo-1H-pyridin-3-yl)sulfonyl]-2-(2,4,6-trimethylphenoxy)pyridine-3-carboxamide]

SMILES	EC30
CC(C)COc1cc(F)cc(-c2ccc(C(=O)NS(=O)(=O)c3cccc(N)n3)c(OC3C(C)CCCC3C)n2)c1 (centres unmarked) [Compound 978, N-[(6-amino-2-pyridyl)sulfonyl]-2-(2,6-dimethylcyclohexoxy)-6-(3-fluoro-5-isobutoxy-phenyl)pyridine-3-carboxamide]	+++ (“+++” means <3 uM)
CC(C)COc1cc(F)cc(-c2ccc(C(=O)NS(=O)(=O)c3ccn[nH]3)c(N3Cc4ccccc4C3)n2)c1 [Compound 981, 6-(3-fluoro-5-isobutoxy-phenyl)-2-isoindolin-2-yl-N-(1H-pyrazol-5-ylsulfonyl)pyridine-3-carboxamide]	++ (“++” means between 3 uM and 10 uM)
CC(C)COc1cncc(-c2ccc(C(=O)NS(=O)(=O)c3cccc(N)n3)c(N3CC(C)CC3(C)C)n2)n1 (centres unmarked) [Compound 988, N-[(6-amino-2-pyridyl)sulfonyl]-6-(6-isobutoxypyrazin-2-yl)-2-(2,2,4-trimethylpyrrolidin-1-yl)pyridine-3-carboxamide]	+++ (“+++” means <3 uM)
CC(C)COc1cc(F)cc(-c2ccc(C(=O)NS(=O)(=O)c3cccc(N)n3)c(N3CCC(C)CC3)n2)c1 [Compound 991, N-[(6-amino-2-pyridyl)sulfonyl]-6-(3-fluoro-5-isobutoxy-phenyl)-2-(4-methyl-1-piperidyl)pyridine-3-carboxamide]	+++ (“+++” means <3 uM)
CC(C)COc1cc(F)cc(-c2ccc(C(=O)NS(=O)(=O)c3ccn[nH]3)c(N3CCC(C)C3(C)C)n2)c1 (centres unmarked) [Compound 997, 6-(3-fluoro-5-isobutoxy-phenyl)-N-(1H-pyrazol-5-ylsulfonyl)-2-(2,2,3-trimethylpyrrolidin-1-yl)pyridine-3-carboxamide]	++ (“++” means between 3 uM and 10 uM)
CC(C)COc1cc(F)cc(-c2ccc(C(=O)NS(=O)(=O)c3cccc(N)n3)c(N3CCCCC3(C)C)n2)c1 [Compound 1004, N-[(6-amino-2-pyridyl)sulfonyl]-2-(2,2-dimethyl-1-piperidyl)-6-(3-fluoro-5-isobutoxy-phenyl)pyridine-3-carboxamide]	+++ (“+++” means <3 uM)
CC(C)COc1cc(F)cc(-c2ccc(C(=O)NS(=O)(=O)c3ccn[nH]3)c(N3CCCC(C)(C)C3)n2)c1 [Compound 1005, 2-(3,3-dimethyl-1-piperidyl)-6-(3-fluoro-5-isobutoxy-phenyl)-N-(1H-pyrazol-5-ylsulfonyl)pyridine-3-carboxamide]	+++ (“+++” means <3 uM)
CC(C)COc1cc(F)cc(-c2ccc(C(=O)NS(=O)(=O)c3ccn[nH]3)c(N3CCC(F)(F)CC3)n2)c1 [Compound 1006, 2-(4,4-difluoro-1-piperidyl)-6-(3-fluoro-5-isobutoxy-phenyl)-N-(1H-pyrazol-5-ylsulfonyl)pyridine-3-carboxamide]	+++ (“+++” means <3 uM)

— US10758534B2 (Vertex Pharmaceuticals Incorporated, priority 2014, dated 2020)
